Reference: patent publication US9643959B2, “Tubulin polymerization inhibitor and method for synthesizing same” (KOREA RESEARCH INSTITUTE OF BIOSCIENCE AND BIOTECHNOLOGY, priority 2013, dated 2017)

Test system: cell proliferation
Experiment: screening of the small-molecule library for materials that can inhibit cell proliferation
Type: cell-based
Conditions: screen of small-molecule library; no data or method given

SMILES: CCOC(=O)Cn1c(C)c(/C=N/NC(=O)c2cc3c(ccc4ccccc43)o2)c2ccccc21 [Compound 7, (E)-ethyl 2-(2-methyl-3-((2-(naphtho[2,1-b]furan-2-carbonyl)hydrazono)methyl)-1H-indol-1-yl)acetate]
- activity of inhibiting mitosis: has an activity of inhibiting mitosis
